Active and inactive are the calls of the source. The calls are words filed in the database; no cut-off is given here.
Tests used:
PC-3 [1] = experiment: Effect on MOB expression in human PC3 cells at 0.25 to 1.5 uM measured after 24 hrs by Western blot analysis; format: functional, cell-based
SUM-159-PT [2] = experiment: Cytotoxicity against human SUM159 cells assessed as reduction in cell viability measured after 72 hrs by MTT assay; format: functional, cell-based
PC-3 [3] = experiment: Downregulation of TAZ protein expression in human PC3 cells at 0.25 to 1.5 uM measured after 24 to 48 hrs by immunoblotting analysis; format: functional, cell-based
MDA-MB-231 [4] = experiment: Effect on MOB expression in human MDA-MB-231 cells at 0.25 to 1.5 uM measured after 24 hrs by Western blot analysis; format: functional, cell-based
[5] = biological target: T1, Serine/threonine-protein kinase LATS1 (Homo sapiens) (UniProt O95835); experiment: Activation of LATS1 in human MDA-MB-231 cells assessed as induction of YAP degradation by measuring suppression of YAP protein expression at 0.25 to 1.5 uM measured after 12 to 24 hrs by immunoblotting analysis; format: cell-based
T1 sequence (whole entry): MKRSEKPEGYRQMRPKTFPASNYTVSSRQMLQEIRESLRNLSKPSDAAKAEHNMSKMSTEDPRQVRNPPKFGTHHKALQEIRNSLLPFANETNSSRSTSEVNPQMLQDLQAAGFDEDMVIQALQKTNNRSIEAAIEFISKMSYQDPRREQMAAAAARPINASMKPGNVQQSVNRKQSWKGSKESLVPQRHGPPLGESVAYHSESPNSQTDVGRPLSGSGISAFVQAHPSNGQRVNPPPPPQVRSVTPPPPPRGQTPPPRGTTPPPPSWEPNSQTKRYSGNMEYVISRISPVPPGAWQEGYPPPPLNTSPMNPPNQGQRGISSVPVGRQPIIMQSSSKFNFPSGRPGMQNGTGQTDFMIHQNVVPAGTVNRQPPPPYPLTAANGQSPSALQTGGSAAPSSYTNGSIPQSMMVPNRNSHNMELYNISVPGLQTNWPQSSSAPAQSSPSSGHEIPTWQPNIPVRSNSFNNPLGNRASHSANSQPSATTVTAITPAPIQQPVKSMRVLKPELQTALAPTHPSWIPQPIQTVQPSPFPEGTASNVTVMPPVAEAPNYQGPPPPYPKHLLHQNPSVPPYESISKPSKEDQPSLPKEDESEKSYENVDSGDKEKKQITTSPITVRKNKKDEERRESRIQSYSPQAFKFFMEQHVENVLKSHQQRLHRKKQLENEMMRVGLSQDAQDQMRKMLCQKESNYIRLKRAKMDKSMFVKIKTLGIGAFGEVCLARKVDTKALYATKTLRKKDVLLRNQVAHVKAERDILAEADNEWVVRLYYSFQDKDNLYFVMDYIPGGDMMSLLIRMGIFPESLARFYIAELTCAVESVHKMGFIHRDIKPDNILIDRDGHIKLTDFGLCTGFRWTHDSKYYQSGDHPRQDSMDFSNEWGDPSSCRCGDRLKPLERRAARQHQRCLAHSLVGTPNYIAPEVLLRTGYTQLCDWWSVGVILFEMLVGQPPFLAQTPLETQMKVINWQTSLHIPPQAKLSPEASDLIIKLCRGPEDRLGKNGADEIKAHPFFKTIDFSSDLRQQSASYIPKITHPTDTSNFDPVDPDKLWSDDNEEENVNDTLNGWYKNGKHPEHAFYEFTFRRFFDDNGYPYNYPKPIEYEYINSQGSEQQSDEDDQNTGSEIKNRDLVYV

[6] = biological target: T1, Serine/threonine-protein kinase LATS1 (Homo sapiens); experiment: Activation of LATS1 in human SUM159 cells assessed as increase in YAP phosphorylation at Ser397 at 0.25 to 1.5 uM measured after 12 to 24 hrs by immunoblotting analysis; format: cell-based
[7] = Acute toxicity in athymic Nude-Foxn1nu BALB/c mouse xenografted with human MDA-MB-231 cells assessed as effect on serum total cholesterol level level at 200 mg/kg, po administered once daily via gavage for 14 days; format: organism-based; conditions: in vivo, 336 h
SUM-159-PT [8] = experiment: Effect on MST1 expression in human SUM159 cells at 0.25 to 1.5 uM measured after 12 hrs by Western blot analysis; format: functional, cell-based
[9] = biological target: Serine/threonine-protein kinase 3/4 (Homo sapiens) (UniProt Q13043+Q13188); experiment: Activation of MST1/2 in human SUM159 cells assessed as effect on phosphorylation at T183/T180 residues at 0.25 to 1.5 uM measured after 12 hrs by Western blot analysis; format: cell-based
[10] = biological target: Epidermal growth factor receptor (Homo sapiens) (UniProt P00533); experiment: Induction of EGFR degradation in human MDA-MB-231 cells assessed as suppression of EGFR expression at 0.1 to 0.8 uM by Western blot analysis; format: cell-based
[11] = Acute toxicity in athymic Nude-Foxn1nu BALB/c mouse xenografted with human MDA-MB-231 cells assessed as effect on body weight at 200 mg/kg, po administered once daily via gavage for 40 days and measured twice a week during treatment period; format: organism-based; conditions: in vivo, 960 h
[12] = biological target: T1, Serine/threonine-protein kinase LATS1 (Homo sapiens); experiment: Activation of LATS1 in human MDA-MB-231 cells assessed as induction of YAP degradation by measuring suppression of YAP protein expression at 0.5 uM pretreated with compound for 24 hrs followed by incubation with protein synthesis inhibitor, CHX up to 48 hrs by Western blot analysis; format: cell-based
[13] = Acute toxicity in athymic Nude-Foxn1nu BALB/c mouse xenografted with human MDA-MB-231 cells assessed as effect on serum creatinine level at 200 mg/kg, po administered once daily via gavage for 14 days; format: organism-based; conditions: in vivo, 336 h
[14] = biological target: T1, Serine/threonine-protein kinase LATS1 (Homo sapiens); experiment: Activation of LATS1 in human SUM159 cells assessed as increase in phosphorylation at Ser909 residue measured after 12 hrs by Western blot analysis; format: cell-based
[15] = biological target: T1, Serine/threonine-protein kinase LATS1 (Homo sapiens); experiment: Activation of LATS1 in human PC3 cells assessed as increase in phosphorylation at Thr1079 residue measured after 24 hrs by Western blot analysis; format: cell-based
Mus musculus [16] = experiment: Downregulation of YAP protein expression in tumor of athymic Nude-Foxn1nu BALB/c mouse xenografted with human MDA-MB-231 cells at 200 mg/kg, po administered once daily via gavage for 40 days by immunoblotting analysis; format: functional, organism-based
Mus musculus [17] = experiment: Downregulation of C-myc protein expression in tumor of athymic Nude-Foxn1nu BALB/c mouse xenografted with human MDA-MB-231 cells at 200 mg/kg, po administered once daily via gavage for 40 days by immunoblotting analysis; format: functional, organism-based
MDA-MB-231 [18] = experiment: Effect on MST1 expression in human MDA-MB-231 cells at 0.25 to 1.5 uM measured after 24 hrs by Western blot analysis; format: functional, cell-based
MCF7 [19] = experiment: Cytotoxicity against human MCF7 cells assessed as reduction in cell viability measured after 72 hrs by MTT assay; format: functional, cell-based; conditions: MCF7, 72 h
PC-9 = experiment: Cytostatic activity against human PC9 cells assessed as cell viability at concentration of greater than IC50 measured up to 72 hrs by MTT assay; format: functional, cell-based
MCF7 [20] = experiment: Cytostatic activity against human MCF7 cells assessed as cell viability at concentration of greater than IC50 measured up to 72 hrs by MTT assay; format: functional, cell-based

Serine/threonine-protein kinase 3/4 (Homo sapiens), sequence (Q13043 whole entry, looked up): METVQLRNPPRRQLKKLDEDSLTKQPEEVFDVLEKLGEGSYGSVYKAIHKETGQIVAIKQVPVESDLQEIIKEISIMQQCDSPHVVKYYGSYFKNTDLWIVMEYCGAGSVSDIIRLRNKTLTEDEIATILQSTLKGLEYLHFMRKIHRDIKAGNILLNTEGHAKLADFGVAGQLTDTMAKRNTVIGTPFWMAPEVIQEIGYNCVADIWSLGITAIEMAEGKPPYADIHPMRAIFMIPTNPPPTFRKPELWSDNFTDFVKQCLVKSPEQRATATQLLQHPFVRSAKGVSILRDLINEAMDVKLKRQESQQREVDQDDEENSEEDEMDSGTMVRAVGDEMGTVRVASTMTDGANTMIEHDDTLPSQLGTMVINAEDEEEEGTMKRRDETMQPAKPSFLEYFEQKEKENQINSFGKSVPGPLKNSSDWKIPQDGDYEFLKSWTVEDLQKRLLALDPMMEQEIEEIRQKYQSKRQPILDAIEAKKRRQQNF
Serine/threonine-protein kinase 3/4 (Homo sapiens), sequence (Q13188 whole entry, looked up): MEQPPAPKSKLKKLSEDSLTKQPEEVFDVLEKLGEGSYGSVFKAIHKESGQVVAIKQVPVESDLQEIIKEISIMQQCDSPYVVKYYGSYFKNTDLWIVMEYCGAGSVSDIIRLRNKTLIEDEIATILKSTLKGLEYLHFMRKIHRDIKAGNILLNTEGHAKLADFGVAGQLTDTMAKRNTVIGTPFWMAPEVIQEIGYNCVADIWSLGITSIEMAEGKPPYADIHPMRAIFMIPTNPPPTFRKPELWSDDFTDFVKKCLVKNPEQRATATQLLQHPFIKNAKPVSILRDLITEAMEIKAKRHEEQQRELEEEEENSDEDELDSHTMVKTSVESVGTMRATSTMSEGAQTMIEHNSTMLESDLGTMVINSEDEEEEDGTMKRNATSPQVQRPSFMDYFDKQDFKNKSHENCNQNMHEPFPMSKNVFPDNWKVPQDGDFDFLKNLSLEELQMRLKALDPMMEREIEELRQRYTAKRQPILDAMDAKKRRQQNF
Epidermal growth factor receptor (Homo sapiens), sequence (P00533 whole entry): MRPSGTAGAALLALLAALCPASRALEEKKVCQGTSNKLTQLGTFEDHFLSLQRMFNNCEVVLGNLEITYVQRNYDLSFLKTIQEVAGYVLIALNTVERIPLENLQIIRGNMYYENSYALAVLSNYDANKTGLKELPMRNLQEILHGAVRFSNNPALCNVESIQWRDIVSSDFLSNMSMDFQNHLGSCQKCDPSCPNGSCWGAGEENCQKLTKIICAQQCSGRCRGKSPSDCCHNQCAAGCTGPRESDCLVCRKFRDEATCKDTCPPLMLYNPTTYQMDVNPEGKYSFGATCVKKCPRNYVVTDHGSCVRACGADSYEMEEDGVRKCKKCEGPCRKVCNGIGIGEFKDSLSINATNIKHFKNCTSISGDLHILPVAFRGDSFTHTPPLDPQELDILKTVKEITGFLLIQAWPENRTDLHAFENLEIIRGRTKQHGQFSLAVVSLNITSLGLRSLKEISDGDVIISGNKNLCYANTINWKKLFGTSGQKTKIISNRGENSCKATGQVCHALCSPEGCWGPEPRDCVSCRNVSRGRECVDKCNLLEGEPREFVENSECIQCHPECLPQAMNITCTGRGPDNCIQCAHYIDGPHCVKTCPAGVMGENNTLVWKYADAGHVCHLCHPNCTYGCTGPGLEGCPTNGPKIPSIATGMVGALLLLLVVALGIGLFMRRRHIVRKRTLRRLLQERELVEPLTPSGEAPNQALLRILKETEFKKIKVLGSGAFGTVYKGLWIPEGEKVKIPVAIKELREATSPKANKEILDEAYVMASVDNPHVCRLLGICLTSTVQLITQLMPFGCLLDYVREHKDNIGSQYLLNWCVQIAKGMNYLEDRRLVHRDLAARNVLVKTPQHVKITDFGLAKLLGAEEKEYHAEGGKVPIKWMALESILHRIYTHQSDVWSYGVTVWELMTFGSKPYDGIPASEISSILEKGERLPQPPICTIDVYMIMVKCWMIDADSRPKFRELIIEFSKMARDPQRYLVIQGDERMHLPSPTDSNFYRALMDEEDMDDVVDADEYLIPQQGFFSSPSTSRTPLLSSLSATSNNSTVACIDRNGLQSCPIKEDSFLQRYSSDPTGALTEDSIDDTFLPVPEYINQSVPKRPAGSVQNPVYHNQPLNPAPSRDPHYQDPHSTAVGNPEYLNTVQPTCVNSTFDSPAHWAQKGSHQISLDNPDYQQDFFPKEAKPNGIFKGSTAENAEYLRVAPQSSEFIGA

Structure (SMILES): CC(=O)Nc1ccc(NC(=O)Nc2cccc(-c3nc(-c4ccc(NC(=O)c5cccnc5)cc4Cl)no3)c2)cc1C(F)(F)F
- Activity (PC-3 [1]): inactive
- Activity (SUM-159-PT [2]): Dose-dependent effect
- IC50 (SUM-159-PT [2]): 400 to 800 nM
- inhibition (PC-3 [3]): inactive
- Activity (MDA-MB-231 [4]): inactive
- Activity [5]: Active
- Activity [6]: Active
- Activity [7]: Non-Toxic
- Activity (SUM-159-PT [8]): inactive
- Activity [9]: inactive
- Activity [10]: inactive
- Activity [11]: Non-Toxic
- Activity [12]: Active
- Activity [13]: Non-Toxic
- Activity [14]: Dose-dependent effect
- Activity [15]: Dose-dependent effect
- inhibition (Mus musculus [16]): Active
- inhibition (Mus musculus [17]): Active
- Activity (MDA-MB-231 [18]): inactive
- IC50 (MCF7 [19]): > 1200 nM
- Activity (PC-9): Active
- Activity (MCF7 [20]): Active
